Structures can show the parent of a compound that is named as a salt. Blank lines part the entries; values can stand above or below the molecule they belong to.
Columns and labels:
[1] = tested on: NMDA-induced neuropathy, animal models of epilepsy or brain ischemia; details: reported in the literature; cited from earlier work
AMPA receptor = assay: [3H]-AMPA binding inhibitory activity; details: rat cerebral membrane
Procedure: Determination of [^3 H]-AMPA Binding Activity
A mixture (0.5 ml) of about 45 nM [^3 H]-AMPA (2-amino-3-(3-hydroxy-5-methyl-4-isoxazole)propionic acid), about […] of rat cerebral membrane specimen and the test compound was allowed to react on ice-water for 45 minutes. The amount of [^3 H]-AMPA bound to quisqualic acid receptors was determined by the filtration method. Of the total amount of binding, the portion substituted for by 10 μM quisqualic acid was regarded as specific binding. The test compound was evaluated by determining the percentage inhibition of the specific binding.

DBA/2 mice = assay: Audiogenic convulsion inhibitory activity in DBA/2 mice; type: in vivo; details: Mus musculus, ip, 0.25 h, intraperitoneal, given 15 minutes before sound stimulation, read-out: dose at which audiogenic convulsions were inhibited
Procedure: Determination of Audiogenic Convulsion Inhibitory Activity in DBA/2 Mice
Ten male mice, 21-28 days old, were placed in a soundproof box and loaded with a sound stimulus of 12 KHz and 120 dB for 1 minute or until the mice developed tonic convulsions.
The test compound was suspended in 0.5% methylcellulose solution or dissolved in physiological saline and administered intraperitoneally 45 or 15 minutes before sound stimulation.
The effect of the test compound was evaluated according to the onset of convulsion and the minimum effective dose (MED) was determined.

[2] = tested on: nerve cells in the hippocampus CA1; assay: Neuron-protective action in the hippocampus, gerbil model of ischemia; type: in vivo; details: administered 60, 70 and 85 minutes after 5-minute ischemia (regimen 2, 30 mg/kg/dose i.p.)
Procedure: Neuron-Protective Action in the Hippocampus
The protective action on nerve cell necrosis due to cerebral ischemia was tested using a gerbil model of ischemia constructed by occlusion of the bilateral common carotid arteries.
The bilateral common carotid arteries of the gerbil were occluded for 5 minutes under halothane anesthesia with the animal kept warm to avoid hypothermia and, then, the animal was allowed to recover from anesthesia. After 4 days, the brain was isolated and sections were prepared for histological examination of the degree of neuronal damage in the hippocampus CA1.
The test compound, either suspended in 0.5% methylcellulose solution or dissolved in physiological saline, was administered intraperitoneally. Two dosage regimens were employed. In regimen 1, 30 mg/kg/dose was administered 45 and 15 minutes before ischemia and 5 minutes and 1, 2, 3, 6 and 24 hours after obtaining re-patency. In regimen 2, 30 mg/kg/dose was administered 60, 70 and 85 minutes after obtaining re-patency.
Histopathological examination was performed using a light microscope. The degree of nerve cell impairment in the hippocampus CA1 area was rated on a 4-point scale of no lesion (score 0), slight necrosis (score 1), moderate necrosis (score 2) and complete necrosis (score 3).

[3] = tested on: animal model of brain ischemia; details: reported in the literature; cited from earlier work

Structure (SMILES): NC(CCCP(=O)(O)O)C(=O)O (stereo not shown) [2-amino-5-phosphonovalerianic acid]
- efficacy in NMDA-induced neuropathy and in animal models of epilepsy or brain ischemia [1]: effective

Structure (SMILES): NC(CCCCCP(=O)(O)O)C(=O)O (stereo not shown) [2-amino-7-phosphonoheptanoic acid]
- efficacy in NMDA-induced neuropathy and in animal models of epilepsy or brain ischemia [1]: effective

- AMPA receptor binding inhibitory activity (AMPA receptor; at 1 μM): 96%
- Ki (AMPA receptor): 21 nM
Structure (SMILES): O=c1[nH]c2cc([N+](=O)[O-])c(-n3ccnc3)cc2n(O)c1=O [Example 8, 1-hydroxy-7-imidazolyl-6-nitroquinoxaline-2,3-(1H,4H)-dione]

Structure (SMILES): O=c1[nH]c2cc(-n3ccnc3)c(C(F)(F)F)cc2[nH]c1=O [Example 9, 6-(1-imidazolyl)-7-trifluoromethylquinoxaline-2,3-(1H,4H)-dione hydrochloride hydrate]
- minimal effective dose (DBA/2 mice): 3 mg/kg

Structure (SMILES): O=c1[nH]c2cc(-n3ccnc3)c([N+](=O)[O-])cc2[nH]c1=O [Example 15, 6-imidazolyl-7-nitroquinoxaline-2,3-(1H,4H)-dione]
- minimal effective dose (DBA/2 mice): 3 mg/kg
- lesion score (hippocampus CA1, scale 0-3) [2]: 1.2
- neuron protecting activity [2]: 60%

Structure (SMILES): NC1CCN(O)C1=O (stereo not shown) [HA-966]
- efficacy in an animal model of brain ischemia [3]: effective

Structure (SMILES): NS(=O)(=O)c1cccc2c1c([N+](=O)[O-])cc1[nH]c(=O)c(=O)[nH]c12 [NBQX]
- efficacy in an animal model of brain ischemia [3]: effective

Reference: patent US5283244A, “Fused pyrazine derivatives” (Yamanouchi Pharmaceutical Co., Ltd., priority 1990, dated 1994)
